Consider five molecules from patent US20100113484A1, “TREATING AGENT OF UROPATHY” (ASKA PHARMACEUTICAL CO., LTD., priority 2006, published 2010).

For experiment [1], the target named is T1, human recombinant PDE9 protein (Homo sapiens, UniProt O76083).
T1 construct: made in house; host or cells: COS-1 cells, transient transfection with pcDNA 3.1 (+); supernatant of the homogenate, not purified
Kind of experiment: Measurement of PDE9-inhibiting activity ([3H]-cGMP hydrolysis). The following applies: Tables A and C; read-out: Inhibiting Activity (IC50 value) PDE9. In kind it is biochemical. Here is the method: Based on the base sequence of hsPDE9A1 registered with GenBank database (accession No.: AF048837), hsPDE9A1 fragment was amplified by polymerase chain reaction under the following conditions, using the following sequence (Amasham Pharmacia Biotech) as the primer and Human Prostate […] cDNA library (CLONTECH) as the template DNA, with Pfu Turbo DNA polymerase ([…]):
PCR condition: [95° C., 5 min]×1 cycle, [(95° C., 1 min), (58° C., 2 min), (72° C., 3 min)]×25 cycles, [72° C., 10 min]×1 cycle
Thus obtained hsPDE9A1 fragment was given a restricted enzymatic treatment with NheI and NotI, and thereafter inserted into pcDNA 3.1 (+) expression vector (Invitrogen) to let it serve as a human PDE9 expression vector.
Human PDE9 expression vector-transformed Escherichia coli was mass incubated to produce a large amount of human PDE9 expression vector, which was transiently transfected into COS-1 cells, with LIPOFECTAMINE 2000 Reagent (GIBCO). The cells were homogenized in ice-cooled buffer A (40 mmol/L Tris-HCl, pH7.5, 15 mmol/L benzamidine, 15 mmol/L 2-mercaptoethanol, 1 μg/mL Pepstatin A, 1 μg/mL Leupeptin, 5 mmol/L EDTA) and centrifuged at 4° C., 14,000×g for 10 minutes. The supernatant was isolated to provide human recombinant PDE9 protein solution.
This mixed solution was incubated at 30° C. for 30 minutes and the enzymatic reaction of PDE9 was terminated by heating the system in boiling water for 90 seconds. Returning the system to room temperature, 50 μL of Snake venom (SIGMA: 1 mg/mL) was added, followed by 10 minutes' incubation at 30° C., to convert the [^3H]-5′-GMP produced in the previous reaction to [^3H]-guanosine. […] Thereafter [^3H]-guanosine was eluted with 3 mL of 3 mol/L aqueous ammonia and its radiation activity was measured with liquid scintillation counter.
PDE9 inhibition of the tested compound can be calculated by the following formula: […]
From the percent inhibition at various concentration levels of each tested compound, its IC50 value against PDE9 can be determined.

For experiment [2], the target named is T2, human recombinant PDE5 protein (Homo sapiens, UniProt O76074).
T2 construct: made in house; host or cells: COS-1 cells, transient transfection with pcDNA 3.1 (+); supernatant of the homogenate, not purified
Kind of experiment: Measurement of PDE5-inhibiting activity. The following applies: Tables A and C; read-out: Inhibiting Activity (IC50 value) PDE5. In kind it is biochemical. Here is the method:
PCR condition: [94° C., 2 min]×1 cycle, [(94° C., 30 sec), (65° C., 30 sec), (68° C., 3 min)]×25 cycles, [68° C., 6 min]×1 cycle
Thus obtained hsPDE5A1 fragment was given a restricted enzymatic treatment with XBaI and EcoRI, and thereafter inserted into pcDNA 3.1 (+) expression vector (Invitrogen) to let it serve as a human PDE5 expression vector.
Human PDE5 expression vector-transformed Escherichia coli was mass incubated to produce a large amount of human PDE5 expression vector, which was transiently transfected into COS-1 cells, with LIPOFECTAMINE 2000 Reagent (GIBCO). The cells were homogenized in ice-cooled buffer A and centrifuged at 4° C., 14,000×g for 10 minutes. The supernatant was isolated to provide human recombinant PDE5 protein solution.

In experiment [3] the test system is partial urethra obstruction model in guinea pigs. Kind of experiment: Dysuria pathological model: partial urethra obstruction model, cystometry. In kind it is in vivo, Hartley female guinea pigs. The following applies: guinea pig, i.v. The method, then: Three-four weeks old Hartley female guinea pigs (Japan SLC, Inc.) were given celiotomy under anesthesia with pentobarbital (30 mg/kg i.p.) and in their urethra to the peripheral side by 1-2 mm from the bladder neck, each a polyethylene tube of 1.4 mm in width and 2.0 mm in inner diameter was placed. After closing the wound, the guinea pigs were bred for at least 3 weeks to produce partial urethra obstruction model in guinea pigs in which occurrence of intravesical pressure rise not accompanied by micturition (uninhibited contraction) and residual urine were observed.
The model was catheterized under anesthesia with urethane (1 g/kg i.p.) at the apex of urinary bladder and right jugular vein for cystometrography and intravenous administration, respectively. The other end of the bladder catheter was connected to a pressure transducer and infusion pump via a three way stop-cock, and physiological saline was continuously infused into the bladder through the infusion pump at a rate of 0.4 mL/min to induce micturition reflex. Immediately after the micturition reflex was induced, infusion of physiological saline into the bladder was stopped. The intravesical pressure at the time the micturition reflex was induced was measured with the pressure transducer, and the obtained cystometrogram was recorded with pen recorder. The urine voided was collected with disposable type weighing dish and its weight was measured. Further the physiological saline remained in the bladder was sucked with syringe via the bladder catheter and the residual urine volume was measured. The operations of suspending the infusion of physiological saline upon induction of micturition reflex, and about 1 minute thereafter resuming the infusion of physiological saline to induce micturition reflex were repeated plural times (generally 4 times) to stabilize the micturition reflex.
After stabilizing the micturition reflex, a compound solution (prepared by dissolving the compound or methanesulfonic acid salt thereof in DMSO and diluting it with physiological saline or distilled water) or physiological saline was administered into the vein at a volume of 10 mL/kg over 4 minutes, and simultaneously the above-described micturition reflex operations were repeated until 30 minutes passed after initiation of the administration, while measuring the intravesical pressure and the volumes of micturition and residual urine. Also the frequency of uninhibited contraction occurrence during the above-described operations was recorded.

T1 sequence (O76083 whole entry): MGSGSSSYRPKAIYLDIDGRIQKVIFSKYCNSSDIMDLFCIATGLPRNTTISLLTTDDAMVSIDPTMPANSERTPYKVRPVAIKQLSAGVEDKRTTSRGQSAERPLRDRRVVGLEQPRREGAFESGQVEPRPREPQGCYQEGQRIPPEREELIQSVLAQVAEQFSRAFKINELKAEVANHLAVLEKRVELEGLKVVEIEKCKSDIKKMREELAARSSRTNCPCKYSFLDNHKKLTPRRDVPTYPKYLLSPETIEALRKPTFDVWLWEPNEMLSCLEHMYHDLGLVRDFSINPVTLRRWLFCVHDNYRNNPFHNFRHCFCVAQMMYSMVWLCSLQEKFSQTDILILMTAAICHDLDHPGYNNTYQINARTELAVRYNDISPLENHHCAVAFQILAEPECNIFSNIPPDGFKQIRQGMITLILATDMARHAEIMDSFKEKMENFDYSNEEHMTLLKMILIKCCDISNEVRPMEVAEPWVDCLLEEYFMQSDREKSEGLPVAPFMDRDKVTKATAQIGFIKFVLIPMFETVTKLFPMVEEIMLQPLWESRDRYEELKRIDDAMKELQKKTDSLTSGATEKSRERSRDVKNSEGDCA

In general, IC50 refers to the concentration that inhibits the measured activity by half. On to `Cc1c(C(=O)O)sc2nc(Cc3cccs3)[nH]c(=O)c12` [A-2, 5-Methyl-4-oxo-2-(thiophen-2-ylmethyl)-3,4-dihydrothieno-[2,3-d]pyrimidine-6-carboxylic acid], for which the IC50 in experiment [1] was found to be 0.04 µM. Besides, the IC50 in experiment [2] was 21.1 µM. Moreover, in experiment [3] (1 mg/kg), the “Frequency of occurrence of uninhibited contraction after administration” value turned out to be 0.47 times/min, the “Frequency of occurrence of uninhibited contraction volume change” value was −0.44 times/min, the “Residual urine volume after administration” value is on record as 1.23 mL and the “Residual urine volume volume change” value is -0.04 mL. In addition, in experiment [3] (10 mg/kg), the “Frequency of occurrence of uninhibited contraction after administration” value came to 0.78 times/min, the “Frequency of occurrence of uninhibited contraction volume change” value is reported as −0.13 times/min, the “Residual urine volume after administration” value worked out at 1.02 mL and the “Residual urine volume volume change” value is -0.25 mL.
Take `Cc1c(C(=O)O)sc2nc(Cc3cccc(Cl)c3)[nH]c(=O)c12` [A-4, 2-(3-Chlorobenzyl)-5-methyl-4-oxo-3,4-dihydrothieno[2,3-d]-pyrimidine-6-carboxylic acid]: in experiment [1], the IC50 was 0.03 µM. In addition, in experiment [2], the IC50 was found to be 6.77 µM. Besides, in experiment [3] (0.3 mg/kg), the “Frequency of occurrence of uninhibited contraction after administration” value is listed as 0.80 times/min, the “Frequency of occurrence of uninhibited contraction volume change” value was −0.36 times/min, the “Residual urine volume after administration” value was determined as 1.08 mL and the “Residual urine volume volume change” value is reported as “+0.13 mL”. Moreover, in experiment [3] (3 mg/kg), the “Frequency of occurrence of uninhibited contraction after administration” value was 0.49 times/min, the “Frequency of occurrence of uninhibited contraction volume change” value is listed as −0.67 times/min, the “Residual urine volume after administration” value amounted to 1.11 mL and the “Residual urine volume volume change” value was “+0.16 mL”. In experiment [3] (10 mg/kg), the “Frequency of occurrence of uninhibited contraction after administration” value came out at 0.60 times/min, the “Frequency of occurrence of uninhibited contraction volume change” value is on record as −0.56 times/min, the “Residual urine volume after administration” value came out at 0.95 mL and the “Residual urine volume volume change” value is 0.00 mL.
For the molecule `Cc1c(C(=O)O)sc2nc(Cc3ccc(Cl)c(Cl)c3)[nH]c(=O)c12` [A-7, 2-(3,4-Dichlorobenzyl)-5-methyl-4-oxo-3,4-dihydrothieno-[2,3-d]pyrimidine-6-carboxylic acid], the IC50 in experiment [1] came out at 0.038 µM. Moreover, the half-maximal inhibitory concentration (IC50) in experiment [2] was 0.915 µM. In addition, in experiment [3] (1 mg/kg), the “Frequency of occurrence of uninhibited contraction after administration” value stood at 0.79 times/min, the “Frequency of occurrence of uninhibited contraction volume change” value is on record as −0.17 times/min, the “Residual urine volume after administration” value came to 0.86 mL and the “Residual urine volume volume change” value was “+0.04 mL”. Also, in experiment [3] (3 mg/kg), the “Frequency of occurrence of uninhibited contraction after administration” value is listed as 0.77 times/min, the “Frequency of occurrence of uninhibited contraction volume change” value is given as −0.39 times/min, the “Residual urine volume after administration” value stood at 1.03 mL and the “Residual urine volume volume change” value was -0.30 mL. In addition, in experiment [3] (10 mg/kg), the “Frequency of occurrence of uninhibited contraction after administration” value turned out to be 0.64 times/min, the “Frequency of occurrence of uninhibited contraction volume change” value is on record as −0.47 times/min, the “Residual urine volume after administration” value was determined as 0.64 mL and the “Residual urine volume volume change” value is -0.42 mL.
Turning to `O=C(O)c1cc2c(=O)[nH]c(CC3=CCCC3)nc2s1` [A-21, 2-(Cyclopent-1-enylmethyl)-4-oxo-3,4-dihydrothieno[2,3-d]-pyrimidine-6-carboxylic acid], the half-maximal inhibitory concentration (IC50) in experiment [1] is 0.022 µM. Also, the IC50 in experiment [2] was 12.1 µM. In experiment [3] (0.3 mg/kg), the “Frequency of occurrence of uninhibited contraction after administration” value is 0.55 times/min, the “Frequency of occurrence of uninhibited contraction volume change” value is given as −0.53 times/min, the “Residual urine volume after administration” value was found to be 1.02 mL and the “Residual urine volume volume change” value is -0.52 mL. Also, in experiment [3] (3 mg/kg), the “Frequency of occurrence of uninhibited contraction after administration” value worked out at 0.78 times/min, the “Frequency of occurrence of uninhibited contraction volume change” value is −0.66 times/min, the “Residual urine volume after administration” value amounted to 0.88 mL and the “Residual urine volume volume change” value is -0.49 mL. In addition, in experiment [3] (10 mg/kg), the “Frequency of occurrence of uninhibited contraction after administration” value was found to be 0.83 times/min, the “Frequency of occurrence of uninhibited contraction volume change” value was −0.74 times/min, the “Residual urine volume after administration” value turned out to be 0.62 mL and the “Residual urine volume volume change” value is -1.06 mL.
For `Cc1c(C(=O)O)sc2nc(Cc3cccc(Cl)c3)[nH]c(=S)c12` [A-26, 2-(3-Chlorobenzyl)-5-methyl-4-thioxo-3,4-dihydrothieno-[2,3-d]pyrimidine-6-carboxylic acid], the figures for the IC50 in experiment [1] and in experiment [2] were 0.005 µM and 1.11 µM, respectively. Besides, the “Frequency of occurrence of uninhibited contraction after administration” value in experiment [3] (0.3 mg/kg) came out at 1.02 times/min; in experiment [3] (3 mg/kg) it was 0.76 times/min; in experiment [3] (10 mg/kg), 0.59 times/min. Moreover, the results for the “Frequency of occurrence of uninhibited contraction volume change” value in experiment [3] (0.3 mg/kg), in experiment [3] (3 mg/kg) and in experiment [3] (10 mg/kg) were −0.10 times/min, −0.36 times/min and −0.53 times/min, respectively. For the same molecule, the “Residual urine volume after administration” value in experiment [3] (0.3 mg/kg) was determined as 0.91 mL; in experiment [3] (3 mg/kg) it was 0.27 mL; in experiment [3] (10 mg/kg), 0.48 mL. The figures for the “Residual urine volume volume change” value in experiment [3] (0.3 mg/kg), in experiment [3] (3 mg/kg) and in experiment [3] (10 mg/kg) were -0.11 mL, -0.75 mL and -0.54 mL, respectively.
